The record followed here is US20230295109A1, “PYRIDINONE COMPOUNDS FOR THE TREATMENT OF AUTOIMMUNE DISEASE” (F. Hoffmann-La Roche AG, priority 2020, published 2023).

Each structure is given as a SMILES string.

Data set [1] addresses T1, human TLR8 (Homo sapiens, UniProt Q9NR97).
T1 construct: host or cells: HEK293 (HEK-Blue hTLR8)
T1 sequence (Q9NR97 27-1041): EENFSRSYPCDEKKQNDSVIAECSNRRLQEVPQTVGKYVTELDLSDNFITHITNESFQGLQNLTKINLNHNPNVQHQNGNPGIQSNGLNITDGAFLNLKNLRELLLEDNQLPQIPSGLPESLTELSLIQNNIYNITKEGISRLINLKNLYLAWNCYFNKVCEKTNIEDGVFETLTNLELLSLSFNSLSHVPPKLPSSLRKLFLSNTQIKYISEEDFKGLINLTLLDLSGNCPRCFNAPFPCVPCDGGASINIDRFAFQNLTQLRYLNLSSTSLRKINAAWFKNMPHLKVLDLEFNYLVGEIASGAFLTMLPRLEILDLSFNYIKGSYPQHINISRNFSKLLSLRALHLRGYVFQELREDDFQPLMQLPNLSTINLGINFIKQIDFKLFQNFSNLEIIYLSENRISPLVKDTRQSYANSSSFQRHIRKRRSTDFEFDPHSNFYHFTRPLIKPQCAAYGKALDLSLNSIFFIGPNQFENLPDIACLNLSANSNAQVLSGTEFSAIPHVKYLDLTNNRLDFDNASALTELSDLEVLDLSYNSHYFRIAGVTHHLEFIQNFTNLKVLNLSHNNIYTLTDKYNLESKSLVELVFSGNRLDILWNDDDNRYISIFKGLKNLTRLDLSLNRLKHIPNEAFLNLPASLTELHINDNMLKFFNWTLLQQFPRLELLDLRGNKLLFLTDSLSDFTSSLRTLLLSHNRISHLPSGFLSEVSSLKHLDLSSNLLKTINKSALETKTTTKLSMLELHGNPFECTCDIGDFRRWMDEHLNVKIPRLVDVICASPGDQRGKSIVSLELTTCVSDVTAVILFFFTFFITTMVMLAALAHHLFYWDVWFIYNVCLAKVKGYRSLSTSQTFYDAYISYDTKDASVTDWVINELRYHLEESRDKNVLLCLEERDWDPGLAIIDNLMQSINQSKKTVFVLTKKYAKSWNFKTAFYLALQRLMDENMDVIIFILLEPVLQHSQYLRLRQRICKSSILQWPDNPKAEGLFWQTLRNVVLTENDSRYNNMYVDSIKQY
Briefly: HEK293-Blue-hTLR-8 cells assay. Type of data set: cell-based. The following applies: HEK293-Blue-hTLR8 cells, R848 stimulation, 20 hrs, SEAP reporter; read-out: HEK/hTLR8 IC50. The text has this:
A stable HEK293-Blue-hTLR-8 cell line was purchased from InvivoGen (Cat.#: hkb-htlr8, San Diego, California, USA). These cells were originally designed for studying the stimulation of human TLR8 by monitoring the activation of NF-κB. A SEAP (secreted embryonic alkaline phosphatase) reporter gene was placed under the control of the IFN-β minimal promoter fused to five NF-κB and AP-1-binding sites. The SEAP was induced by activating NF-κB and AP-1 via stimulating HEK-Blue hTLR8 cells with TLR8 ligands. Therefore the reporter expression was declined by TLR8 antagonist under the stimulation of a ligand, such as R848, for incubation of 20 hrs. The cell culture supernatant SEAP reporter activity was determined using QUANTI-Blue™ kit (Cat.#: rep-qb1, Invivogen, San Diego, Ca, USA) at a wavelength of 640 nm, a detection medium that turns purple or blue in the presence of alkaline phosphatase.
HEK293-Blue-hTLR8 cells were incubated at a density of 250,000~450,000 cells/mL in a volume of 170 µL in a 96-well plate in Dulbecco’s Modified Eagle’s medium (DMEM) containing 4.5 g/L glucose, 50 U/mL penicillin, […], […], 2 mM L-glutamine, 10% (v/v) heat-inactivated fetal bovine serum with addition of 20 µL test compound in a serial dilution in the presence of final DMSO at 1% and 10 µL of 60uM R848 in above DMEM, perform incubation under 37° C. in a CO2 incubator for 20 hrs. Then 20 µL of the supernatant from each well was incubated with 180 µL Quanti-blue substrate solution at 37° C. for 2 hrs and the absorbance was read at 620 \~655 nm using a spectrophotometer. The signaling pathway that TLR8 activation leads to downstream NF-κB activation has been widely accepted, and therefore similar reporter assay was modified for evaluating TLR8 antagonist.

Data set [2] can be described thus: Human microsome stability assay. Conditions: 1 µM test compound, 0.5 mg/mL liver microsomal protein, 37° C., pH 7.4. Type of data set: in vitro ADME. As for the experimental part: The human microsomal stability assay is used for early assessment of metabolic stability of a test compound in human liver microsomes.
Human liver microsomes (Cat.NO.: 452117, Corning, USA;Cat.NO.:H2610, Xenotech, USA) were preincubated with test compound for 10 minutes at 37° C. in 100 mM potassium phosphate buffer, pH 7.4. The reactions were initiated by adding NADPH regenerating system. The final incubation mixtures contained 1 µM test compound, 0.5 mg/mL liver microsomal protein, 1 mM MgCl2, 1 mM NADP, 1 unit/mL isocitric dehydrogenase and 6 mM isocitric acid in 100 mM potassium phosphate buffer, pH 7.4. After incubation times of 0, 3, 6, 9, 15 and 30 minutes at 37° C., 300 µL of cold acetonitrile (including internal standard) was added to 100 µL incubation mixture to terminate the reaction. Following precipitation and centrifugation, the amount of compound remaining in the samples were determined by LC-MS/MS. Controls of no NADPH regenerating system at zero and 30 minutes were also prepared and analyzed.
(In general: Liver microsomes are vesicles of endoplasmic reticulum, rich in cytochrome P450 enzymes.)

Regarding `Cc1cc(-c2ccc(N3CCN(Cc4cnc(N5CCNCC5)cn4)CC3)nc2C(C)C)cn(C)c1=O` [Example 8, 5-[2-isopropyl-6-[4-[(5-piperazin-1-ylpyrazin-2-yl)methyl]piperazin-1-yl]-3-pyridyl]-1,3-dimethyl-pyridin-2-one], in data set [1], the IC50 was found to be 0.3 nM. For the same compound, in data set [2], the “Clearance of Human microsome” value turned out to be 8.3 mL/min/kg. Turning to `CCc1nc(N2CCN3CCN(c4cnc(N5CC6(CNCCO6)C5)nc4)CC3C2)ccc1-c1cc(C)c(=O)n(C)c1` (centres unmarked) [Example 19, 5-[2-ethyl-6-[2-[2-(5-oxa-2,8-diazaspiro[3.5]nonan-2-yl)pyrimidin-5-yl]-3,4,6,7,9,9a-hexahydro-1H-pyrazino[1,2-a]pyrazin-8-yl]-3-pyridyl]-1,3-dimethyl-pyridin-2-one], the IC50 in data set [1] stood at 5.9 nM. In the case of `Cc1cc(-c2ccc(N3CCN(c4ccc5c(n4)CCNC5)CC3)nc2C(C)C)cn(C)c1=O` [Example 15, 5-[2-isopropyl-6-[4-(5,6,7,8-tetrahydro-1,6-naphthyridin-2-yl)piperazin-1-yl]-3-pyridyl]-1,3-dimethyl-pyridin-2-one], the IC50 in data set [1] worked out at 2 nM. Moreover, the “Clearance of Human microsome” value in data set [2] came out at 8.7 mL/min/kg. As to `CCc1nc(N2CCN(Cc3ccc(N4CC5(CNCCO5)C4)nc3)CC2)ccc1-c1cc(C)c(=O)n(C)c1` [Example 2, 5-[2-ethyl-6-[4-[[6-(5-oxa-2,8-diazaspiro[3.5]nonan-2-yl)-3 pyridyl]methyl]piperazin-1-yl]-3-pyridyl]-1,3-dimethyl-pyridin-2-one], in data set [1], the IC50 was 0.3 nM. In data set [2], the “Clearance of Human microsome” value is 12.0 mL/min/kg. On to `Cc1cc(-c2ccc(N3CCN(Cc4cnc(N5CC6(CNCCO6)C5)nc4)CC3)nc2C(C)C)cn(C)c1=O` [Example 6, 5-[2-isopropyl-6-[4-[[2-(5-oxa-2,8-diazaspiro[3.5]nonan-2-yl)pyrimidin-5-yl]methyl]piperazin-1-yl]-3-pyridyl]-1,3-dimethyl-pyridin-2-one], for which, in data set [1], the IC50 was found to be 0.3 nM. In the case of `CCc1nc(N2CCN(Cc3cnc(N4CC(C)(N)C4)nc3)CC2)ccc1-c1cc(C)c(=O)n(C)c1` [Example 3, 5-[6-[4-[[2-(3-amino-3-methyl-azetidin-1-yl)pyrimidin-5-yl]methyl]piperazin-1-yl]-2-ethyl-3-pyridyl]-1,3-dimethyl-pyridin-2-one], the IC50 in data set [1] stood at 0.3 nM. Moreover, the “Clearance of Human microsome” value in data set [2] is reported as 6.1 mL/min/kg. Turning to `CCc1nc(N2CCN(Cc3ccc(N4CCNCC4)cc3)CC2)ccc1-c1cc(C)c(=O)n(C)c1` [Example 5, 5-[2-ethyl-6-[4-[(4-piperazin-1-ylphenyl)methyl]piperazin-1-yl]-3-pyridyl]-1,3-dimethyl-pyridin-2-one], in data set [1], the IC50 is 0.3 nM. In the case of `Cc1cc(-c2ccc(N3CCN(Cc4ncc(N5CCNCC5)cn4)CC3)nc2C(C)C)cn(C)c1=O` [Example 12, 5-[2-isopropyl-6-[4-[(5-piperazin-1-ylpyrimidin-2-yl)methyl]piperazin-1-yl]-3-pyridyl]-1,3-dimethyl-pyridin-2-one], the IC50 in data set [1] stood at 0.7 nM. Further, the “Clearance of Human microsome” value in data set [2] is 8.8 mL/min/kg. In the case of `Cc1cc(-c2ccc(N3CCN(Cc4ccc(N5CCNCC5)cc4)CC3)nc2C(F)F)cn(C)c1=O` [Example 17, 5-[2-(difluoromethyl)-6-[4-[(4-piperazin-1-ylphenyl)methyl]piperazin-1-yl]-3-pyridyl]-1,3-dimethyl-pyridin-2-one], in data set [1], the IC50 turned out to be 0.3 nM. Also, the “Clearance of Human microsome” value in data set [2] is 8.5 mL/min/kg. For the compound `CCc1nc(N2CCN(Cc3cnc(N4CCOC[C@@H](N)C4)nc3)CC2)ccc1-c1cc(C)c(=O)n(C)c1` [Example 4, 5-[6-[4-[[2-[(6S)-6-amino-1,4-oxazepan-4-yl]pyrimidin-5-yl]methyl]piperazin-1-yl]-2-ethyl-3-pyridyl]-1,3-dimethyl-pyridin-2-one], the IC50 in data set [1] stood at 0.6 nM. Regarding `Cc1cc(-c2ccc(N3CCN(Cc4ccc(N5CCNCC5)cn4)CC3)nc2C(C)C)cn(C)c1=O` [Example 7, 5-[2-isopropyl-6-[4-[(5-piperazin-1-yl-2-pyridyl)methyl]piperazin-1-yl]-3-pyridyl]-1,3-dimethyl-pyridin-2-one], the IC50 in data set [1] was determined as 0.3 nM. In addition, the “Clearance of Human microsome” value in data set [2] was 7.4 mL/min/kg. `Cc1cc(-c2ccc(N3CCC(N4CCNCC4)CC3)nc2C(C)C)cn(C)c1=O` [Example 18, 5-[2-isopropyl-6-(4-piperazin-1-yl-1-piperidyl)-3-pyridyl]-1,3-dimethyl-pyridin-2-one]: the IC50 in data set [1] stood at 0.8 nM. In addition, the “Clearance of Human microsome” value in data set [2] was 7.5 mL/min/kg.

For `CCc1nc(N2CCN(Cc3cnc(N4CC5(CNCCO5)C4)nc3)CC2)ccc1-c1cc(C)c(=O)n(C)c1` [Example 1, 5-[2-ethyl-6-[4-[[2-(5-oxa-2,8-diazaspiro[3.5]nonan-2-yl)pyrimidin-5-yl]methyl]piperazin-1-yl]-3-pyridyl]-1,3-dimethyl-pyridin-2-one], the IC50 in data set [1] amounted to 0.7 nM. For the same compound, in data set [2], the “Clearance of Human microsome” value came out at 6.5 mL/min/kg. In the case of `Cc1cc(-c2ccc(N3CCN4CCN(c5ccc(N6CCNCC6)nc5)CC4C3)nc2C(C)C)cn(C)c1=O` (centres unmarked) [Example 16, 5-[2-isopropyl-6-[8-(6-piperazin-1-yl-3-pyridyl)-3,4,6,7,9,9a-hexahydro-1H-pyrazino[1,2-a]pyrazin-2-yl]-3-pyridyl]-1,3-dimethyl-pyridin-2-one], the IC50 in data set [1] was determined as 2 nM. On to `Cc1cc(-c2ccc(N3CCN(Cc4ccc(N5CCNCC5)cc4)CC3)nc2C(C)C)cn(C)c1=O` [Example 13, 5-[2-isopropyl-6-[4-[(4-piperazin-1-ylphenyl)methyl]piperazin-1-yl]-3-pyridyl]-1,3-dimethyl-pyridin-2-one], for which, in data set [1], the IC50 came out at 0.3 nM. The same measure, in the same setting: as for `Cc1cc(-c2ccc(N3CCN(Cc4ccc(N5CCNCC5)nc4)CC3)nc2C(C)C)cn(C)c1=O` [Example 11, 5-[2-isopropyl-6-[4-[(6-piperazin-1-yl-3-pyridyl)methyl]piperazin-1-yl]-3-pyridyl]-1,3-dimethyl-pyridin-2-one], the figure is 0.3 nM; as for `Cc1cc(-c2ccc(N3CCN(Cc4cnc(N5CC(C)(N)C5)nc4)CC3)nc2C(C)C)cn(C)c1=O` [Example 10, 5-[6-[4-[[2-(3-amino-3-methyl-azetidin-1-yl)pyrimidin-5-yl]methyl]piperazin-1-yl]-2-isopropyl-3-pyridyl]-1,3-dimethyl-pyridin-2-one], 0.3 nM.
